Source: patent publication US20250099356A1, “PERSONAL CARE COMPOSITION WITH N-CAPRYLOYL L-GLUTAMINE AND GLYCERYL MONOUNDECYLENATE AS PRESERVATIVE” (GALAXY SURFACTANTS LTD., priority 2024, published 2025)

Key:
Malassezia yeast = assay: Minimum inhibitory concentration, Malassezia yeast; assay type: cell-based; details: species not given
Method: (§1) The MIC (minimum inhibitory concentrations) of N-capryloyl L-glutamine and glyceryl monoundecylenate and 1:1 mixture (by weight) of the two antimicrobials against various microbes are determined as per PCPC (Personal Care Product Council, Washington, USA) protocol.

[1] = Biodegradability, OECD 301D-Closed Bottle Test
Text: N-capryloyl L-glutamine and glyceryl monoundecylenate, derived from renewable sources, are compatible with most used ingredients of the personal care compositions.

bacteria, yeast and mold = assay: Challenge test (preservation efficacy) in cleansing surfactant composition of Table 2a; assay type: cell-based; details: for challenge test / preservation efficacy test: 1.5% level in the same formulation, pH 5.5 and 7.0
Text: In an embodiment several personal care compositions of various types have been tested for the preservation efficacy of the combination of N-capryloyl L-glutamine and glyceryl monoundecylenate using PCPC (Personal Care Products Council, Washington DC, formerly known as CTFA) protocol ('Evaluation of preservatives to protect cosmetics' by D. Orth in Cosmetics and Toiletries, March 91). […] Both ‘rinse-off’ and ‘leave-on’ formulations (Examples 5 to 10) passed the challenge tests. Using the typical surfactant composition two sets are prepared at different pHs, 5.5 and 7.0. Antimicrobials individually and in combination are tested for preservation efficacy. [table]

[2] = tested on: Cutibacterium acnes ATCC 6919; assay: Minimum inhibitory concentration (PCPC protocol); assay type: cell-based; details: Gram positive
Method: as §1

[3] = tested on: Candida albicans ATCC 10231; assay: Minimum inhibitory concentration (PCPC protocol); assay type: cell-based; details: Yeast
Method: as §1

[4] = tested on: Micrococcus luteus NCIM 2103; assay: Minimum inhibitory concentration (PCPC protocol); assay type: cell-based; details: Gram positive
Method: as §1

[5] = tested on: Staphylococcus hominis MTCC 8980; assay: Minimum inhibitory concentration (PCPC protocol); assay type: cell-based; details: Gram positive
Method: as §1

[6] = tested on: Escherichia coli ATCC 8739; assay: Minimum inhibitory concentration (PCPC protocol); assay type: cell-based; details: Gram negative
Method: as §1

[7] = tested on: Pseudomonas aeruginosa ATCC 15442; assay: Minimum inhibitory concentration (PCPC protocol); assay type: cell-based; details: Gram negative
Method: as §1

[8] = tested on: Malassezia furfur ATCC 14521; assay: Minimum inhibitory concentration (PCPC protocol); assay type: cell-based; details: Yeast
Method: as §1

[9] = tested on: Malassezia restricta ATCC MYA 4611; assay: Minimum inhibitory concentration (PCPC protocol); assay type: cell-based; details: Yeast
Method: as §1

[10] = tested on: Burkholderia cepacia ATCC 25416; assay: Minimum inhibitory concentration (PCPC protocol); assay type: cell-based; details: Gram negative
Method: as §1

[11] = tested on: Staphylococcus epidermidis NCIM 2493; assay: Minimum inhibitory concentration (PCPC protocol); assay type: cell-based; details: Gram positive, b76: at skin pH of 5.5
Method: as §1

[12] = tested on: Aspergillus niger ATCC 16404; assay: Minimum inhibitory concentration (PCPC protocol); assay type: cell-based; details: Mold
Method: as §1

[13] = tested on: Staphylococcus aureus ATCC 6538; assay: Minimum inhibitory concentration (PCPC protocol); assay type: cell-based; details: Gram positive; b76: at skin pH of 5.5
Method: as §1

[14] = tested on: Gardnerella vaginalis ATCC 14018; assay: Minimum inhibitory concentration (PCPC protocol); assay type: cell-based; details: Gram variable
Method: as §1

[15] = tested on: Candida glabrata ATCC 66032; assay: Minimum inhibitory concentration (PCPC protocol); assay type: cell-based; details: Yeast
Method: as §1

[16] = tested on: Corynebacterium xerosis ATCC 373; assay: Minimum inhibitory concentration (PCPC protocol); assay type: cell-based; details: Gram positive
Method: as §1

[17] = antimicrobial 1.5% in total in cleansing formulation of Table 2a, pH 5.5
[18] = antimicrobial 1.5% in total in cleansing formulation of Table 2a, pH 7.0
[19] = antimicrobial 2.0% in cleansing formulation of Table 2a, pH 5.5
[20] = antimicrobial 2.0% in total in cleansing formulation of Table 2a, pH 7.0
[21] = deployed alone at 2% in the surfactant composition, at both acidic and neutral pH (5.5 and 7.0)

Row | Compound | MIC against Malassezia yeast (Malassezia yeast) [%] | biodegradability as per OECD 301D-Closed Bottle Test [1] | challenge test / preservation efficacy test (bacteria, yeast and mold) | Challenge Test (bacteria, yeast and mold; [17]) | Challenge Test (bacteria, yeast and mold; [18]) | Challenge Test (bacteria, yeast and mold; [19]) | Challenge Test (bacteria, yeast and mold; [20]) | Challenge Test (bacteria, yeast and mold; [21]) | MIC in % Cutibacterium acnes ATCC 6919 [2] [%] | MIC in % Candida albicans ATCC 10231 [3] [%] | MIC in % Micrococcus luteus NCIM 2103 [4] [%] | MIC in % Staphylococcus hominis MTCC 8980 [5] [%] | MIC in % Escherichia coli ATCC 8739 [6] [%] | MIC in % Pseudomonas aeruginosa ATCC 15442 [7] [%] | MIC in % Malassezia furfur ATCC 14521 [8] [%] | MIC in % Malassezia restricta ATCC MYA 4611 [9] [%] | MIC in % Burkholderia cepacia ATCC 25416 [10] [%] | MIC in % Staphylococcus epidermidis NCIM 2493 [11] [%] | MIC in % Aspergillus niger ATCC 16404 [12] [%] | MIC in % Staphylococcus aureus ATCC 6538 [13] [%] | further results
1 | CCCCCCCC(=O)N[C@@H](CCC(N)=O)C(=O)O [CG, N-capryloyl L-glutamine] | 0.2 | completely biodegradable | fail to pass the challenge test | Passes | Fails | Passes | Passes | preserve the composition | 0.2 | 0.6 | 0.5 | 0.6 | 0.7 | 0.7 | 0.3 | 0.4 | 1 | 0.9 | 1 | 0.3 | MIC in % Staphylococcus epidermidis NCIM 2493 ([11]; listed as N-capryloyl L-glutamine): 1.0%; MIC in % Gardnerella vaginalis ATCC 14018 [14]: 0.6%; MIC in % Candida glabrata ATCC 66032 [15]: 0.6%; MIC in % Corynebacterium xerosis ATCC 373 [16]: 0.5%
2 | C=CCCCCCCCCC(=O)OCC(O)CO (stereo not shown) [GMU, glyceryl monoundecylenate] | 0.2 | completely biodegradable | fail to pass the challenge test | Fails | Fails | Passes | Passes | preserve the composition | 0.9 | 1 | 0.5 | 0.7 | 1 | 1 | 0.2 | 0.2 | 1 | 1 | 0.8 | 0.1 | MIC in % Staphylococcus epidermidis NCIM 2493 ([11]; listed as glyceryl mono undecylenate): 1.0%; MIC in % Staphylococcus epidermidis NCIM 2493 ([11]; listed as glyceryl monoundecylenate): 0.9%; MIC in % Gardnerella vaginalis ATCC 14018 [14]: 0.3%; MIC in % Candida glabrata ATCC 66032 [15]: 0.4%; MIC in % Corynebacterium xerosis ATCC 373 [16]: 0.5%
